Test results from patent US20150037821A1, “METHODS OF IDENTIFYING HIT-ANTIBODIES AND PF4 ANTAGONISTS AND CELL LINES FOR USE THEREIN” (THE TRUSTEES OF THE UNIVERSITY OF PENNSYLVANIA, priority 2012, published 2015).

B1: PF4: platelet factor 4, 70 amino acid, lysine-rich 7.8 kDa platelet-specific CXC chemokine protein (protein, UniProt P02776 32-101, looked up)
Platelet factor 4: EAEEDGDLQCLCVKTTSQVRPRHITSLEVIKAGPHCPTAQLIATLKNGRKICLDLQAPLYKKIIKKLLES

Assays:
PF4 = target: T1, PF4 (Homo sapiens, UniProt P02776); test: DT40 cell (FcγRIIA + NFAT-Luc reporter) activation assay: inhibition by PF4 antagonists; assay type: cell-based; details: for IC50: PF4 10 μg/mL, heparin 0.3 U/mL, KKO 20 μg/mL, luciferase readout after 6 hours; for inhibition of FcγRIIA-dependent cellular activation (in words): activation by KKO, dose-response, FIG. 1C
T1 construct: platelet factor 4 which is a 70 amino acid, lysine-rich, 7.8 kDa platelet-specific protein; made in house; host or cells: Drosophila Schneider 2 (S2) cells
T1 sequence (P02776 32-101): B1 Platelet factor 4
Protocol: (§1) DT40 cells (chicken B cells) were cultured in RPMI supplemented with 10% fetal bovine serum, 1% chicken serum (Gibco), 50 μM 13-mercaptoethanol, 2 mM GlutaMAX (Gibco), 100 U/mL penicillin and 100 U/mL streptomycin at 37° C. under 5% CO2. Cells were co-transfected with 5 μg pEF6-FcγRIIA and 20 μg pEF6-NFAT-Luc by electroporation. Positive transformants were selected using blastidicin.
On day following transfection, cells were pelleted by centrifugation and re-suspended at 2×10^6 cells/mL in fresh medium without serum. Cell aliquots (50 μL) were placed into each well of a 96 well plate. To establish basal expression, 50 μL media was added. Further, the cells were also incubated independently with the following: PF4, heparin, RTO antibody, KKO antibody, ULCs alone, ULCs and RTO; ULCs and KKO and IV.3 antibody. Monoclonal antibody IV.3 (an FcγRIIA-blocking antibody) was used in combination with an anti-Fc antibody to activate FcγRIIA bound by IV.3 as a positive control for FcγRIIA signaling. 8 μg/mL of IV.3 was added for 15 minutes at 37° C. under 5% CO2, followed by 50 μL of sheep anti-mouse-IgG secondary antibody at 15 μg/mL to crosslink and activate these receptors. As a positive control for an intact intracellular signaling pathway, phorbol myristate acetate (PMA; 25 ng/mL) with ionomycin (1 μM) was added (not shown).
We then used this assay to measure the inhibitory capacity of the PF4 antagonist compounds described in the concurrently filed related application referenced above. PF4 (10 μg/mL) and various concentrations of potential antagonists were co-incubated for 60 min at 37° C. under 5% CO2 followed by the addition of heparin (0.3 U/mL) for 15 min at 37° C. in 5% CO2. KKO (20 μg/mL) or plasma from patients with serotonin release assay confirmed HIT (1:800 dilution) was then added. 50 μL of each mixture was added to the 96 well plate containing 50 μL of cells at a concentration of 2×10^6 cells/mL in fresh medium without serum. Plates were incubated for 6 hours at 37° C. under 5% CO2, and then frozen at −80° C. To measure activation, cells were thawed and lysed with 5× Passive Lysis Buffer (Promega) for 15 minutes. Luciferase activity was measured on a Berthold MultiLumat LB 9506 Luminometer (10 sec readings) using Promega's Luciferase Assay Reagent following the manufacturer's instructions. In other experiments, PF4 antagonists discussed herein were incubated with PF4 for 5 minutes with the same results.

platelets = test: Serotonin release assay with 14C-labeled platelets; assay type: cell-based, human; details: for inhibition of platelet activation by KKO (release of 14C-serotonin): KKO 170 μg/mL, heparin 1.0 U/mL, antagonists 2.5 mM, FIG. 1E
Protocol: To confirm the results of the novel assay, an independent, orthogonal assessment of activity was performed using a serotonin release assay. Serotonin release assays are described in Hirschman, “The use of platelet serotonin release as a sensitive method for detecting anti-platelet antibodies and a plasma anti-platelet factor in patients with idiopathic thrombocytopenic purpura”, Br. J. Haematol., 24(6):793-802 (1973), and Rauova and Cines, “Heparin-associated thrombocytopenia”, N. Engl. J. Med., 303:788-795 (1980), which are hereby incorporated by reference.
Briefly, platelet rich plasma (PRP) from healthy donors was incubated with 0.5 μL ^14C-5-hydroxytryptamine creatinine sulfate (GE Life Sciences, Piscataway, N.J.) per milliliter of PRP for 20 minutes at 37° C. to produce ^14C-labeled platelets. Serotonin uptake was inhibited by adding […] imipramine (Sigma-Aldrich, St. Louis, Mo.) to the PRP.
The radiolabeled platelets were mixed with KKO (170 μg/mL) or with known platelet-activating HIT plasma in the absence (buffer control) or presence of PF4 antagonist compounds 1, 34, 80, 101, and 96. Assays were performed in the presence of heparin (1.0 U/mL) and in the absence of heparin (background). Negative controls without antibody were studied in parallel. Data are expressed as % maximal release of radioactivity with release by the positive control plasma and 1.0 U/mL heparin defined as 100%.

FcγRIIA = test: Activation of DT40 cells transfected with FcγRIIA and a Luc reporter; assay type: cell-based, human; details: FIG. 1A
Protocol: B cells used in the novel assays of the invention were prepared as follows. NFAT-Luc was kindly provided by Prof Arthur Weiss (Shapiro, “c-rel Regulation of IL-2 gene expression may be mediated through activation of AP-1”, J. Exp. Med., 184(5):1663-1669 (1996), hereby incorporated by reference). The NFAT reporter contains three copies of a composite NFAT-activator protein-1 (AP-1) element from the human interleukin-2 (IL-2) gene promoter, and is activated by binding of NFAT (nuclear factor of activated T-cells). pEF6-FcγRIIA, which contains the human FcγRIIA coding sequence under the control of the human EF-1a promoter, was constructed by cloning a human FcγRIIA IMAGE clone into the multiple cloning site of pEF6c (Invitrogen).
as §1, with “blastidicin. […]” for “blastidicin.”
It was next examined whether FcγRIIA activation was heparin-dependent. To do so, activation by KKO was measured using a constant amount of PF4 and increasing amounts of heparin. […]

Molecule | IC50 (PF4) | inhibition of FcγRIIA-dependent cellular activation (in words) (PF4) | inhibition of platelet activation by KKO (release of 14C-serotonin) (platelets) | inhibition of DT40 activation by human HIT plasma (PF4; HIT plasma 1:800 dilution, similar potency as activation by KKO, FIG. 1D) | inhibition of DT40 activation by KKO and patient samples (PF4; antagonist concentration 500 μM, KKO and plasma from three HIT patients, FIG. 1D) | inhibition of serotonin release from platelets activated by plasma from patients with HIT (platelets; HIT plasma, several antagonist concentrations, FIG. 1F) | activation of FcγRIIA-expressing DT40 cells, substance added alone (FcγRIIA)
O=C(O)c1ccccc1OP(=O)(O)O [Compound 96] | 500 µM | less potent | inhibited |  |  |  | 
O=C(O)CCc1ccc(-c2ccc(Cl)cc2)n1CC(=O)O [Compound 80] | 440 µM | less potent | inhibited |  |  |  | 
CC(=O)C1=C(O)c2cc([N+](=O)[O-])ccc2C1=O [Compound 1] | 33 µM |  |  |  |  |  | 
CCOC(=O)Cn1c(CCC(=O)O)ccc1-c1ccc(Cl)cc1 [Compound 101] | 100 µM | complete inhibition | inhibited | inhibited | completely inhibited | inhibited | 
O=C1CC([PH](=O)O)CO1 (stereo not shown) [Compound 34] | > 500 µM | not inhibitory |  |  |  |  | 
B1 |  |  |  |  |  |  | did not activate
